Test results published in patent US10500198B2, “Bis-benzylidine piperidone proteasome inhibitor with anticancer activity” (The Johns Hopkins University, priority 2013, dated 2019).
Entries after “also recorded” stand apart in the source; their conditions may differ.

What was measured:
RPN13 = target: T1, RPN13 (Homo sapiens, UniProt Q16186); assay: Biotin labeling assay; type: binding; details: cell lysate or purified RP, streptavidin-peroxidase blot
T1 construct: endogenous in cells; host or cells: HeLa, HS578T cell lysate
T1 sequence (Q16186 whole entry): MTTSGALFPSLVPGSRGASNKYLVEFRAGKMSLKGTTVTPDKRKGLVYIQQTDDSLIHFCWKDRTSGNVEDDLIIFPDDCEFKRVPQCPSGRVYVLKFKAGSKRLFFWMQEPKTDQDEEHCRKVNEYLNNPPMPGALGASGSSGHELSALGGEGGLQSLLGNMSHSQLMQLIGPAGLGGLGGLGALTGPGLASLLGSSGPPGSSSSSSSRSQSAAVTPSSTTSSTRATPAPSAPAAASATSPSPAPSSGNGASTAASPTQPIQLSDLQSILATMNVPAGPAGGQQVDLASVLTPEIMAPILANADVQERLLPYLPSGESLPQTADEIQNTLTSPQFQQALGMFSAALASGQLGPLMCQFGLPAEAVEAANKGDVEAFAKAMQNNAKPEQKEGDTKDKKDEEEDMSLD
Experimental: FIGS. 10 A-10E show a series of graphs and immunoblots showing the effects of several compounds on cell viability and proteasome activity. […] 10B and 10C show immunoblots of the proteasome activity of cell lines treated with the indicated compounds. […] IC50 values were determined in triplicate. In FIG. 10B, HeLa cells were treated for 12 hr and the cell lysate was subjected to immunoblot analysis with anti-Ubiquitin antibody. In FIG. 10C, SiHa cells were treated with the indicated compounds for 12 hr and the lysate subjected to Western blot analysis with anti-Ubiquitin antibody. HeLa cell lysate was treated with RA190B, subjected to SDS-PAGE, and probed with streptavidin-peroxidase following protein transfer to a polyvinylidene difluoride (PVDF) membrane. The streptavidin-peroxidase bound to biotinylated cellular proteins, but a striking new band at 42 kDa appeared in RA190B-treated samples (FIG. 2A). […] IC50 values were determined in triplicate.
To eliminate the possibility that another RP component was required for RA190B interaction, RPN13 or an irrelevant protein (L2) was overexpressed in bacteria. Cell lysate harvested from bacteria either with or without […] induction of ectopic protein expression was labeled with RA190B and probed by blotting with streptavidin-peroxidase. RA190B reacted strongly with a 42 kDa protein only in lysates of bacteria expressing RPN13 (FIG. 2D). […] 800 μL fractions were collected and alternate fractions (1,3,5,7,9,11,13,15,17) were analyzed for the presence of proteasomal proteins (RPN13, RPN2, RPN1 and UCH37) by Western blot analysis.
Human cells (5×10^6 HeLa or 293TT cells) were lysed using MPER (Pierce) lysis buffer (500 μL). RPN13 or HPV L2 transformed bacterial cells (500 μL of culture) were centrifuged to harvest the cells which were re-suspended in 500 μL BPER (Pierce). Cell lysates were centrifuged at 10,000 rpm briefly (2 min) at 4° C. to remove cell debris. Lysate supernatant (200 μL) was pre cleared with streptavidin dyna beads (20 μL) for 1 h at 4° C. to remove non-specific biotin binding and incubated with compounds (indicated concentrations or 20 μM) at 4° C. for 1 hr. An equal amount of each sample (20 μL of lysate) was mixed with an equal volume of Laemmli sample buffer (20 μL) (BioRad) and was boiled for 5 min. […] (24 V). Membrane was blocked with 5% BSA in PBST for 1 hr at room temperature and washed for 20 min (3×PBST). Then the membrane was probed with HRP-streptavidin (1:10,000 in PBST) for 1 hr at room temperature and washed for 30 min (3×PBST) and developed using HyGLO chemiluminescent detection reagent (Denville) for biotin recognition. For the purified enzyme assay, 19S purified proteasome (R&D Systems, Cat. No. E-366) (500 ng) in 19S buffer (20 mM HEPES, 20 mM NaCl, 1 mM DTT, 15% Glycerol) was incubated with compounds (20 μM) for 1 hr at room temperature and mixed with an equal volume of Laemmli sample buffer (20 μL) (BioRad) and was boiled for 5 min. Each sample was loaded onto gel and followed the western blot protocol mentioned above.
Purified 19S proteasome (500 ng) was incubated with corresponding compounds for 30 min and subjected to immunoblot and probed with HRP-conjugated streptavidin. In FIG. 23, the single band at 42 KDa indicates Rpn13 binding to 195. RA183B (20 μM) is used as positive control for Rpn13 binding. Competition experiments were done with RA183 (100 μM) and RA195 (100 μM) along with RA195B (20 μM).

TC-1 tumor = TC-1 tumor in C57BL6 mice; type: in vivo, mouse
Experimental: For TC-1 tumors, C57BL/6 mice (8/group) were challenged subcutaneously with 5×10^4 TC-1 cells/mice. Tumors grew for approximately 7 days until they were palpable, whereupon the mice were weighed and treatment was initiated. Tumor size was measured with a digital caliper and calculated based on the formula: [largest diameter×(perpendicular diameter)2]π/6. Nude mice (8 per group) were inoculated with 1×10^6 EΩ-Luciferase cells i.p. in 100 μL PBS. At day 3 mice were imaged for basal level luminescence expression. […] NOG mice (5 per group) were inoculated with 1×10^6 NCI-H929-GFP-Luc cells i.v., and after 4 weeks, mice were imaged for their luciferase activity and divided into two groups.
Splenocytes were prepared and stimulated with HPV16 E7aa49-57 peptide (1 μg/mL) at the presence of GolgiPlug (BD Pharmingen) overnight at 37° C. The cells were first stained with PE-conjugated anti-mouse CD 8α (BD Pharmingen), then permeabilized, fixed and intracellularly stained with FITC-conjugated anti-mouse IFN-γ (BD Pharmingen). The data were acquired with FACS Calibur and analyzed with CellQuest software.

[1] = Pharmacokinetic measurements, plasma; type: in vivo, mouse; details: 10 mg/kg i.p., BALB/c mice
Experimental: Tissue was harvested at 48 hr after single-dose intraperitoneal administration in non-tumor bearing mice. Blood was collected by cardiac puncture under anesthesia into heparinized syringes and centrifuged to obtain plasma. Tissues were rapidly dissected and snap frozen in liquid nitrogen. Samples were stored frozen at −70° C. until analysis. […] Tissue homogenates were prepared at a concentration of 200 mg/mL in PBS and further diluted 1:10 in mouse plasma before extraction using acetonitrile containing temazepam (100 ng/mL). Separation was achieved on Waters X-Terra™ C18 (50 mm×2.1 mm i.d., 3 μm) at room temperature using isocratic elution with acetonitrile/water mobile phase (70:30, v/v) containing 0.1% formic acid at a flow rate of 0.2 mL/min. […] Samples were quantitated over the assay range of 10 to 1000 ng/mL or 0.6 to 60 μg/g. […] Cmax and Tmax were the observed values from the mean data. The AUClast was calculated using the log-linear trapezoidal rule to the end of sample collection (AUClast) and extrapolated to infinity (AUC0-∞) by dividing the last quantifiable concentration by the terminal disposition rate constant (λz), which was determined from the slope of the terminal phase of the concentration-time profile. The half-life (T1/2) was determined by dividing 0.693 by λz. Relative bioavailability was calculated as follows: […]

[2] = tested on: p53 in HeLa, CaSki, and SiHa cells; assay: Immunoblot for p53 in cervical cancer cells; type: cell-based; details: 24 hr
Experimental: Tubulin was used as a loading control.
Total cellular protein (10-20 μg) from each sample was subjected to SDS-PAGE, transferred to PVDF membranes and analyzed by Western blot. Antibodies for Western blot analysis were obtained by the following commercial sources: anti-ubiquitin, anti-p53 (FL393), anti-p21(WAF1), anti-hDLG-1(2D11), anti-Puma, Bak, Bax (Cell Signaling Technology, Danvers, Mass.), anti-IκB-α (C-15), anti-ATF-4 (SC-200) (Santa Cruz Biotechnology, Santa Cruz, Calif.), anti-PARP (BD Pharmingen, San Diego, Calif.), anti HSP90 (Stressgen Corp, Victoria BC, Canada), anti-tubulin (Sigma, St. Louis, Mo.), anti-Actin, anti-ADRM1 (anti-RPN13), anti-RPN2 (anti-PSMD1) (Sigma-Aldrich), anti-RPN10, UCH37 (Cell-signaling), anti-RPN1 (proteasome 19S subunit anti-S2) (Thermo Scientific), streptavidin Dyna beads (Invitrogen), HRP-streptavidin (Invitrogen), peroxidase-linked anti-mouse Immunoglobulin G and anti-rabbit IgG (GE Healthcare UK Ltd, UK) and utilized at the concentration recommended by the manufacturer.

Row | SMILES | labeling of / competition for RPN13 (42 kDa band) (RPN13) | polyubiquitinated proteins in tumor lysates (TC-1 tumor; i.p. 20 mg/kg daily for 7 days, western blot) | weight gain and spontaneous E7-specific CD8+ T cell response versus vehicle (TC-1 tumor; oral 40 mg/kg every third day) | final tumor weight (TC-1 tumor; oral 40 mg/kg every third day, after 14-day treatment period) [mg] | TC-1 tumor growth versus vehicle (TC-1 tumor; oral 40 mg/kg every third day, p<0.001) | AUC [1] [ng·h/mL] | C1/F [1] [L/h/kg] | Cmax [1] [ng/mL] | T1/2,α (distribution half-life) [1] [h] | T1/2,β (terminal half-life) [1] [h] | Ud/F [1] [L/kg] | p53 levels [2]
1 | Cl.NCCCC[C@H](NC(=O)OCC1c2ccccc2-c2ccccc21)C(=O)N1C/C(=C\c2ccc(Cl)c(Cl)c2)C(=O)/C(=C/c2ccc(Cl)c(Cl)c2)C1 [RA195] | binds covalently to RPN13 |  |  |  |  |  |  |  |  |  |  | 
2 | Cl.N[C@@H](Cc1ccccc1)C(=O)N1CC(=Cc2ccc(Cl)c(Cl)c2)C(=O)C(=Cc2ccc(Cl)c(Cl)c2)C1 [RA190, 3,5-bis(3,4-dichlorobenzylidene)-1-(S-2-amino-3-phenyl)-piperidin-4-one-HCl salt] | competitive; also recorded: covalently binds directly to RPN13 | dramatically elevated | did not differ significantly | 727 ± 101 | significantly inhibited | 4393 | 2.3 | 808 | 4.2 | 25.5 | 83.61 | elevated p53 levels
